In US5378846A, “1,2,3,4-tetrahydropyrrolo-[1,2-a]-pyrazine derivatives” (Russian-American Institute For New Drug Development, priority 1993, dated 1995):
Entries after “also recorded” stand apart in the source; their conditions may differ. Where two headings read alike, the source gives them in different places.

Key:
[1] = tested on: aggressive behavior in mice; assay: Antiaggressive activity (threshold of aggressive behavior, electrified floor); format: in vivo, outbred male mice
Procedure: (§1) Compounds according to the present invention were checked for their influence on gross behaviour. The experiments described herein (Examples 11, 12, 13, 14, and 15) were carried out using outbred male mice weighing approximately 18-24 g. Each substance was administered intraperitoneally 45 min. before the experiment. Locomotor activity was estimated individually for each animal for 3 min. using an actometer `Era-1` (Russia).
The effect of Compound 1 on the threshold of the aggressive behavior was determined in the experiment on outbred mice (R. Tedesci et al., J. Pharmacol. Exp. Ther., 125, 28-34, (1959), which is incorporated herein by reference). The paired mice were placed on the electrified floor. The strength of the current, which provoked the fighting, was recorded.

[2] = tested on: rat behavior in Vogel conflict test; assay: Vogel conflict test (anxiolytic activity, punished responses in water-deprived rats); format: in vivo, outbred male albino rats
Excerpt: Compounds according to the present invention were checked for their anxiolytic activity. Behaviour suppressed by punishment is a very reliable indicator of the anxiolytic activity of drugs. A variant of the conflict situation test was used to reveal anxiety in water-deprived rats whose licking was suppressed by shock (see Vogel et al., Phychopharmacologia, 21, 1-7 (1971); J. E. Barrett in Animal Models in Psychopharmacology, Advances in Pharmacological Sciences, 1991; and Birkhauser Verlag, Basel, p. 37.52, Molodavkin et al., Exper. Clin. Pharmacol., 56, (1993), which are incorporated herein by reference).
The experiments were carried out using outbred male albino rats (180-220 g). This experiment involved previous training of water-deprived rats to drink water from a trough. Next day electrical stimulation was given delivering 0.5 mA electric shocks through the trough and metal grid floor of the experimental chamber. A conflict situation was created by clashing motivations (survival and self defense). The degree of anxiolytic activity was estimated by the measurement of the amount of punished licks for 10 min. Each compound was administered intraperitoneally 45 min. before the conflict test.

motor behavior in mice [3] = assay: Horizontal wire test (coordination of movements and myorelaxation); settings: mice
Procedure: (§2) The influence of Compound 1 on the motor behavior was studied according to a "rotating rod" test and a "horizontal wire" test in outbred male mice (18-22 g). A rotating rod (2 cm diameter and 5 rpm speed) was used. Acquisition was defined as the ability to remain on the rotating rod for 2 min. Each animal had two trials. According to the "horizontal wire" test a mouse was hung on the wire (0.3 cm. diameter, wire was fixed horizontally 40 cm above the floor) by the forepaws. The ability to pull the hind legs up to the wire for 2 min. was a criterion of test performance.

[4] = tested on: convulsive effect of pentylenetetrazole in mice; assay: Convulsive effect of pentylenetetrazole; format: in vivo, outbred male mice
Procedure: as §1
The influence of Compound 1 on the latency of convulsions and on the duration of animals' lives after pentylenetetrazole (130 mg/kg subcutaneously) was studied in outbred mice.

[5] = tested on: locomotor activity in mice; assay: Locomotor activity in mice (actometer); format: in vivo, outbred male mice; settings: for The number of movements for 3 min., horizontal activity / The number of movements for 3 min., vertical activity: i.p.
Procedure: as §1

motor behavior in mice [6] = assay: Rotating rod test (coordination of movements and myorelaxation); settings: for Disturbances according to rotating rod test, effect in %: mice
Procedure: as §2

outbred male mice = assay: Acute toxicity in mice; settings: mouse, in vivo, ip
Procedure: as §1
(§3) The compounds of the present invention were checked for acute toxicity in outbred male mice (18-22 g.). They were administered intraperitoneally and the lethality was estimated 24 hours later (Table 6). In the dose range of 500-1000 mg/kg i.p. Compound 1 caused death in 50% of the animals. Compound 1 is almost 5 times less toxic than other compounds.

Acute toxicity in mice = settings: mouse, in vivo, ip, mice, i.p.
Procedure: as §1, §3

[7] = tested on: duration of immobility in mice; assay: Behavioural despair test (forced swimming); format: in vivo, outbred male mice; settings: for The duration of immobility: i.p.
Procedure: as §1
The influence of compounds on behavioral despair was studied according to the model described by Porsolt et al., Arch. int. pharmacodyn.et ther., 228, 327-[…] (1977), which is incorporated herein by reference. Mice, when forced to swim in a cylinder of water without the possibility of escape, rapidly adopt a characteristic immobile posture. […] The only movements they make are those necessary to keep their heads above water.

memory formation in rats = assay: Passive avoidance test, step-through (memory formation, retention); format: in vivo, outbred male albino rats
Procedure: The influence of Compound 1 on memory formation was studied in a passive avoidance test, step-through paradigm (equipment of Laffaette Co., USA). The experiments were carried out on outbred male albino rats ([…]). Compound 1 and other drugs were administered intraperitoneally 45 min. before the passive avoidance training. The retention was tested 24 hours later learning (painful electroshock in the dark compartment) by the measurement of the time spent in the dark compartment for 3 min.

[8] = 10 mg/kg + pentylenetetrazole 130 mg/kg s.c.
[9] = rat, 5.0 mg/kg i.p., retention 24 hours later, 3 min

Question: With O=C(O)CCC(=O)O.c1cc2n(c1)CCNC2 [Compound 1, 1,2,3,4-tetrahydropyrrolo-[1,2-a]-pyrazine hydrosuccinate] as the molecule, how does the “Effect on threshold of aggressive response, in words” value [1] read?
Answer: Its value is “increase the threshold of aggressive response; also recorded: able to enhance the threshold of aggressive response”.

Question: What about the Aggression threshold ([1]; 0.5 mg/kg i.p.) of the same molecule?
Answer: The Aggression threshold was 67.2 ± 1.7 V.

Question: And the Aggression threshold ([1]; 5.0 mg/kg i.p.)?
Answer: Its Aggression threshold is 90.8 ± 4.9 V.

Question: What about the “Anxiolytic effectiveness after chronic administration, in words” value ([2]; 5 mg/kg i.p. once daily for 40 days) of the same molecule?
Answer: The value was “anxiolytic effectiveness of Compound 1 is preserved after its chronic administration”.

Question: And the “The number of punished responses” value ([2]; rat, 2.0 mg/kg i.p., 45 min before test, Table 1)?
Answer: The value was 43.52 ± 14.8.

Question: What about the “The number of punished responses” value ([2]; rat, acute administration, 5 mg/kg, Table 3) of the same molecule?
Answer: The value was 49.52 ± 15.91.

Question: And the “The number of punished responses” value ([2]; rat, chronic administration, 5 mg/kg i.p. once daily for 40 days, Table 3)?
Answer: Its value is 85.8 ± 6.7.

Question: What about the “The number of punished responses” value ([2]; rat, i.p., dose 0.5 mg/kg, Table 2) of the same molecule?
Answer: The value was 49.88 ± 19.27.

Question: And the “The number of punished responses” value ([2]; rat, i.p., dose 1.0 mg/kg, Table 2)?
Answer: The value was 41.29 ± 16.71.

Question: What about the “The number of punished responses” value ([2]; rat, i.p., dose 2.0 mg/kg, Table 2) of the same molecule?
Answer: The value was 43.52 ± 14.8.

Question: What about the “The number of punished responses” value ([2]; rat, i.p., dose 5.0 mg/kg, Table 2) of the same molecule?
Answer: The value was 29.88 ± 13.13.

Question: What about the “The number of punished responses” value ([2]; rat, i.p., dose 10.0 mg/kg, Table 2) of the same molecule?
Answer: The value was 30.88 ± 10.93.

Question: And the “Anxiolytic effect in Vogel conflict test, in words” value ([2]; rat, i.p., Compound 1 vs diazepam: 0.5-2 mg/kg vs 1 and 2 mg/kg)?
Answer: Its value is “increase the amount of punished responses in a Vogel conflict test after acute and chronic administration; also recorded: displayed more anxiolytic effect than diazepam”.

Question: What about the “Disturbances according to horizontal wire test, effect in %” value (motor behavior in mice [3]; dose 5.0) of the same molecule?
Answer: The value was 0%.

Question: And the “Disturbances according to horizontal wire test, effect in %” value (motor behavior in mice [3]; dose 10.0)?
Answer: The value was 0%.

Question: What about the “Disturbances according to horizontal wire test, effect in %” value (motor behavior in mice [3]; dose 20.0) of the same molecule?
Answer: The value was 0%.

Question: And the “Disturbances according to horizontal wire test, effect in %” value (motor behavior in mice [3]; dose 40.0)?
Answer: The value was 0%.

Question: What about the “Disturbances according to horizontal wire test, effect in %” value (motor behavior in mice [3]; dose 80.0) of the same molecule?
Answer: The value was 0%.

Question: What about the “Disturbances according to horizontal wire test, effect in %” value (motor behavior in mice [3]; dose 250.0) of the same molecule?
Answer: The value was 0%.

Question: What about the “Duration of animal survival” value [4, 8] of the same molecule?
Answer: The value was 7.3 ± 1.0 min.

Question: What about the Latency of clon. [4, 8] of the same molecule?
Answer: The Latency of clon. was 3.35 ± 0.7 min.

Question: What about the Latency of ton. [4, 8] of the same molecule?
Answer: Its Latency of ton. is 7.06 ± 1.0 min.

Question: And the “Effect on latency of convulsions and animal survival after pentylenetetrazole, in words” value ([4]; pentylenetetrazole 130 mg/kg subcutaneously)?
Answer: The value was “increase the duration of animals' survival after pentylenetetrazole injection; also recorded: causes prolongation of the latency of convulsions and of animal survival after pentylenetetrazole”.

Question: What about the “Influence on spontaneous motor activity, in words” value ([5]; 0.1-0.3 mg/kg i.p.) of the same molecule?
Answer: Its value is “neither stimulated nor depressed the spontaneous motor activity”.

Question: What about the “The number of movements for 3 min., horizontal activity” value ([5]; 0.1 mg/kg) of the same molecule?
Answer: Its value is 650.8 ± 12.5.

Question: What about the “The number of movements for 3 min., vertical activity” value ([5]; 0.1 mg/kg) of the same molecule?
Answer: Its value is 24.7 ± 2.5.

Question: And the “The number of movements for 3 min., horizontal activity” value ([5]; 0.3 mg/kg)?
Answer: Its value is 657.7 ± 15.5.

Question: What about the “The number of movements for 3 min., vertical activity” value ([5]; 0.3 mg/kg) of the same molecule?
Answer: Its value is 25.2 ± 4.1.

Question: What about the “Disturbances according to rotating rod test, effect in %” value (motor behavior in mice [6]; dose 5.0) of the same molecule?
Answer: The value was 0%.

Question: And the “Disturbances according to rotating rod test, effect in %” value (motor behavior in mice [6]; dose 10.0)?
Answer: Its value is 0%.

Question: And the “Disturbances according to rotating rod test, effect in %” value (motor behavior in mice [6]; dose 20.0)?
Answer: Its value is 0%.

Question: What about the “Disturbances according to rotating rod test, effect in %” value (motor behavior in mice [6]; dose 40.0) of the same molecule?
Answer: Its value is 0%.

Question: What about the “Disturbances according to rotating rod test, effect in %” value (motor behavior in mice [6]; dose 80.0) of the same molecule?
Answer: Its value is 0%.

Question: And the “Disturbances according to rotating rod test, effect in %” value (motor behavior in mice [6]; dose 250.0)?
Answer: Its value is 0%.

Question: What about the “Motor behavior disturbance and myorelaxation, in words” value (motor behavior in mice [6]; rotating rod and horizontal wire tests, Compound 1 5-250 mg/kg) of the same molecule?
Answer: The value was “does not manifest amnestic and myorelaxant effects; also recorded: fails to evoke disturbances in the coordination of movements and myorelaxation”.

Question: What about the “Times less toxic than other compounds” value (outbred male mice) of the same molecule?
Answer: The value was ~5 times.

Question: And the LD50 at 24 h (Acute toxicity in mice; 24 hours, read-out: Dose range causing death in 50% of the animals)?
Answer: Its LD50 at 24 h is 500 to 1000 mg/kg.

Question: And the LD50 at 24 h (Acute toxicity in mice; lethality 24 hours later, Table 6 (range in brackets beside), read-out: LD50)?
Answer: The LD50 at 24 h was 1540 mg/kg.

Question: What about the “Influence on duration of immobility, in words” value ([7]; forced swimming) of the same molecule?
Answer: The value was “did not show any activity; also recorded: does not change the duration of immobility”.

Question: And the “The duration of immobility” value ([7]; 5.0 mg/kg)?
Answer: Its value is 117.3 ± 6.9 s.

Question: And the “The duration of immobility” value ([7]; 10.0 mg/kg)?
Answer: The value was 110.8 ± 5.1 s.

Question: And the “Influence on learning and memory formation, in words” value (memory formation in rats; passive avoidance)?
Answer: The value was “able to facilitate memory trace formation; also recorded: able to facilitate the learning ability: the time spent in the dark compartment was significantly decreased”.

Question: And the “The time spent in dark compartment” value (memory formation in rats; [9])?
Answer: The value was 15.9 ± 3.4 s.

Question: And the “The time spent in light compartment” value (memory formation in rats; [9])?
Answer: The value was 164.1 ± 9.4 s.
